Activity calls are given as the source filed them. The rule behind the calls is not given here.
What was measured:
[1] = target: Glycogen synthase kinase-3 beta (Homo sapiens, UniProt P49841); test: Inhibition of human recombinant GSK3beta
HCT-116 = test: Cytotoxicity against human HCT116 cells assessed as cell viability after 72 hrs by MTT assay; assay type: functional, cell-based; conditions: HCT-116, 72 h
[2] = target: Tyrosine-protein kinase SYK (Homo sapiens, UniProt P43405); test: Inhibition of human recombinant Syk
[3] = target: Mitogen-activated protein kinase kinase kinase 9 (Homo sapiens, UniProt P80192); test: Inhibition of human recombinant MLK1
HeLa = test: Cytotoxicity against human HeLa cells assessed as cell viability after 72 hrs by MTT assay; assay type: functional, cell-based
[4] = Cytotoxicity against human KYSE-150 cells assessed as cell viability after 72 hrs by MTT assay; assay type: functional, cell-based; conditions: KYSE-150, 72 h
[5] = Cytotoxicity against human OCI-LY19 cells assessed as cell viability after 72 hrs by MTT assay; assay type: functional, cell-based; conditions: OCI-LY19, 72 h
[6] = Cytotoxicity against human Calu6 cells assessed as cell viability after 72 hrs by MTT assay; assay type: functional, cell-based; conditions: Calu-6, 72 h
MDA-MB-157 = test: Cytotoxicity against human MDA-MB-157 cells assessed as cell viability after 72 hrs by MTT assay; assay type: functional, cell-based; conditions: MDA-MB-157, 72 h
[7] = target: Tyrosine-protein kinase receptor UFO (Homo sapiens, UniProt P30530); test: Inhibition of human recombinant Axl
Aurora kinase B = Aurora kinase B (Homo sapiens, UniProt Q96GD4); test: Inhibition of human recombinant Aurora-B
MV4-11 = test: Cytotoxicity against human MV4-11 cells assessed as cell viability after 72 hrs by MTT assay; assay type: functional, cell-based; conditions: MV4-11, 72 h
[8] = target: Tyrosine-protein kinase ABL2 (Homo sapiens, UniProt P42684); test: Inhibition of human recombinant Arg
[9] = target: Serine/threonine-protein kinase PAK 4 (Homo sapiens, UniProt O96013); test: Inhibition of human recombinant PAK4
SH-SY5Y = test: Cytotoxicity against human SH-SY5Y cells assessed as cell viability after 72 hrs by MTT assay; assay type: functional, cell-based
Jurkat = test: Cytotoxicity against human Jurkat cells assessed as cell viability after 72 hrs by MTT assay; assay type: functional, cell-based
[10] = target: Ribosomal protein S6 kinase alpha-1 (Homo sapiens, UniProt Q15418); test: Inhibition of human recombinant Rsk1
[11] = target: Cytoplasmic tyrosine-protein kinase BMX (Homo sapiens, UniProt P51813); test: Inhibition of human recombinant Bmx
[12] = target: Fibroblast growth factor receptor 2 (Homo sapiens, UniProt P21802); test: Inhibition of human recombinant FGFR2
MCF7 = test: Cytotoxicity against human MCF7 cells assessed as cell viability after 72 hrs by MTT assay; assay type: functional, cell-based; conditions: MCF7, 72 h
[13] = target: Tyrosine-protein kinase Lck (Homo sapiens, UniProt P06239); test: Inhibition of human recombinant Lck
[14] = Cytotoxicity against human UM-UC-3 cells assessed as cell viability after 72 hrs by MTT assay; assay type: functional, cell-based; conditions: UMUC3, 72 h
[15] = target: Cyclin-dependent kinase 7 (Homo sapiens, UniProt P50613); test: Inhibition of human recombinant CDK7
[16] = target: Cyclin-dependent kinase 2 (Homo sapiens, UniProt P24941); test: Inhibition of human recombinant CDK2
HT-29 = test: Cytotoxicity against human HT-29 cells assessed as cell viability after 72 hrs by MTT assay; assay type: functional, cell-based; conditions: HT-29, 72 h
[17] = target: Serine/threonine-protein kinase PAK 2 (Homo sapiens, UniProt Q13177); test: Inhibition of human recombinant PAK2
ZR-75-1 = test: Cytotoxicity against human ZR-75-1 cells assessed as cell viability after 72 hrs by MTT assay; assay type: functional, cell-based; conditions: ZR-75-1, 72 h
[18] = target: Vascular endothelial growth factor receptor 1 (Homo sapiens, UniProt P17948); test: Inhibition of human recombinant Flt1
[19] = target: Serine/threonine-protein kinase PLK1 (Homo sapiens, UniProt P53350); test: Inhibition of human recombinant Plk1
[20] = target: Calcium/calmodulin-dependent protein kinase type IV (Homo sapiens, UniProt Q16566); test: Inhibition of human recombinant CaMK4
[21] = Cytotoxicity against human SKBR3 cells assessed as cell viability after 72 hrs by MTT assay; assay type: functional, cell-based; conditions: SK-BR-3, 72 h
[22] = target: Proto-oncogene tyrosine-protein kinase receptor Ret (Homo sapiens, UniProt P07949); test: Inhibition of human recombinant Ret
Aurora kinase A = Aurora kinase A (Homo sapiens, UniProt O14965); test: Inhibition of human recombinant Aurora-A
[23] = target: Insulin-like growth factor 1 receptor (Homo sapiens, UniProt P08069); test: Inhibition of human recombinant IGF-1R
A-375 = test: Cytotoxicity against human A375 cells assessed as cell viability after 72 hrs by MTT assay; assay type: functional, cell-based; conditions: A-375, 72 h
MDA-MB-435 = test: Cytotoxicity against human MDA-MB-435 cells assessed as cell viability after 72 hrs by MTT assay; assay type: functional, cell-based; conditions: MDA-MB-435, 72 h
[24] = target: Receptor-type tyrosine-protein kinase FLT3 (Homo sapiens) (UniProt P36888); test: Inhibition of FLT3 in human MV4-11 cells assessed as down regulation of ERK1/2 phosphorylation at >0.001 uM after 6 hrs by Western blotting analysis; assay type: cell-based
[25] = Cytotoxicity against human A875 cells assessed as cell viability after 72 hrs by MTT assay; assay type: functional, cell-based; conditions: A875, 72 h
[26] = target: Epidermal growth factor receptor (Homo sapiens, UniProt P00533); test: Inhibition of human recombinant EGFR
[27] = target: Vascular endothelial growth factor receptor 3 (Homo sapiens, UniProt P35916); test: Inhibition of human recombinant Flt4
BT-474 = test: Cytotoxicity against human BT474 cells assessed as cell viability after 72 hrs by MTT assay; assay type: functional, cell-based; conditions: BT-474, 72 h
[28] = target: Receptor-type tyrosine-protein kinase FLT3 (Homo sapiens) (UniProt P36888); test: Inhibition of FLT3 phosphorylation in human MV4-11 cells after 6 hrs by Western blotting analysis; assay type: cell-based
[29] = target: Serine/threonine-protein kinase Chk1 (Homo sapiens, UniProt O14757); test: Inhibition of human recombinant CHK1
Raji = test: Cytotoxicity against human Raji cells assessed as cell viability after 72 hrs by MTT assay; assay type: functional, cell-based
[30] = target: Vascular endothelial growth factor receptor 2 (Homo sapiens, UniProt P35968); test: Inhibition of human recombinant KDR
[31] = target: Hepatocyte growth factor receptor (Homo sapiens, UniProt P08581); test: Inhibition of human recombinant Met
MDA-MB-453 = test: Cytotoxicity against human MDA-MB-453 cells assessed as cell viability after 72 hrs by MTT assay; assay type: functional, cell-based; conditions: MDA-MB-453, 72 h
[32] = target: Mitogen-activated protein kinase 10 (Homo sapiens, UniProt P53779); test: Inhibition of human recombinant JNK3
[33] = target: Platelet-derived growth factor receptor alpha (Homo sapiens, UniProt P16234); test: Inhibition of human recombinant PDGFRalpha
[34] = target: Serine/threonine-protein kinase D2 (Homo sapiens, UniProt Q9BZL6); test: Inhibition of human recombinant PKD2

Sequence of Receptor-type tyrosine-protein kinase FLT3 (Homo sapiens) (P36888 whole entry): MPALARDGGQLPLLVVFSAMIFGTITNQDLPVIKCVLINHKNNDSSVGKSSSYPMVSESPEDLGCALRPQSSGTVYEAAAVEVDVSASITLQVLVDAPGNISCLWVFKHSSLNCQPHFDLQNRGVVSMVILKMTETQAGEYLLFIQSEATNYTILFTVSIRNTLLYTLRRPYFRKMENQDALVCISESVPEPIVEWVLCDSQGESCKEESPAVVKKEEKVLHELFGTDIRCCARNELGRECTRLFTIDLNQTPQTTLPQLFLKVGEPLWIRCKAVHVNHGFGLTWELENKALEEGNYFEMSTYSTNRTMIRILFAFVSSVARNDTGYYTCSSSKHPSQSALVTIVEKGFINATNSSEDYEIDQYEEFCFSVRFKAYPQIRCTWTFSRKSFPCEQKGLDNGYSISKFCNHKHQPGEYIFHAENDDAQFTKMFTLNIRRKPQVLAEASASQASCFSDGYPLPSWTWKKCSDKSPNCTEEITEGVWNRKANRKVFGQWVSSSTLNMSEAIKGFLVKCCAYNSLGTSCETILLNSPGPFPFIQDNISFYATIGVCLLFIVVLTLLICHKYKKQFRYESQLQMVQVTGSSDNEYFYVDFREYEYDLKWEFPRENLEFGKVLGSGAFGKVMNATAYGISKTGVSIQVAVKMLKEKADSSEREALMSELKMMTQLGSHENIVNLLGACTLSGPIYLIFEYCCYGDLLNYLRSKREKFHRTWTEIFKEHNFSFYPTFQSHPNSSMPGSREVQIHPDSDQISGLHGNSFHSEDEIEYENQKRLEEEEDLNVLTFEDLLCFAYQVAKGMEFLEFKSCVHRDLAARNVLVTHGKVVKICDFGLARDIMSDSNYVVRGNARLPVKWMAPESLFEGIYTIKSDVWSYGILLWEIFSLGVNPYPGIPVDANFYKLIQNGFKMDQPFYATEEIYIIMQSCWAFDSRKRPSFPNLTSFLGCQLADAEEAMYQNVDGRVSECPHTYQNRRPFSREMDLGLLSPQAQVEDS
Sequence of Cytoplasmic tyrosine-protein kinase BMX (P51813 whole entry): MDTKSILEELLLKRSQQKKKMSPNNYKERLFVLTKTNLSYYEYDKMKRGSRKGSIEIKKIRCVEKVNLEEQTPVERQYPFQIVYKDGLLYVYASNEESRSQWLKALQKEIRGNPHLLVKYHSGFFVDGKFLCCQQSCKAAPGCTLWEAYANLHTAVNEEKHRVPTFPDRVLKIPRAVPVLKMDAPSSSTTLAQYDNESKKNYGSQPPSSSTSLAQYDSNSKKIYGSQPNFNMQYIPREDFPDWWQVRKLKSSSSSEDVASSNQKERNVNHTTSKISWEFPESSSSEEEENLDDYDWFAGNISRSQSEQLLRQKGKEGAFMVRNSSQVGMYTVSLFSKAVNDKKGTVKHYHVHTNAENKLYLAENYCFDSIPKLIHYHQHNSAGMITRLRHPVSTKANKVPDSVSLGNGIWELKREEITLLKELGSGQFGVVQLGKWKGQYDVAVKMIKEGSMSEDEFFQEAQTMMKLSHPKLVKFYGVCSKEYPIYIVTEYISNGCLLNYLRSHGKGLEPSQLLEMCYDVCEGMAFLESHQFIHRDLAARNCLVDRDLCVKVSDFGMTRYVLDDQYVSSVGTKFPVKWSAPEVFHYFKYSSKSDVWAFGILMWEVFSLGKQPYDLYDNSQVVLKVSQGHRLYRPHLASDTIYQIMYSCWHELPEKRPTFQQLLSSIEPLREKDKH
Sequence of Glycogen synthase kinase-3 beta (P49841 whole entry): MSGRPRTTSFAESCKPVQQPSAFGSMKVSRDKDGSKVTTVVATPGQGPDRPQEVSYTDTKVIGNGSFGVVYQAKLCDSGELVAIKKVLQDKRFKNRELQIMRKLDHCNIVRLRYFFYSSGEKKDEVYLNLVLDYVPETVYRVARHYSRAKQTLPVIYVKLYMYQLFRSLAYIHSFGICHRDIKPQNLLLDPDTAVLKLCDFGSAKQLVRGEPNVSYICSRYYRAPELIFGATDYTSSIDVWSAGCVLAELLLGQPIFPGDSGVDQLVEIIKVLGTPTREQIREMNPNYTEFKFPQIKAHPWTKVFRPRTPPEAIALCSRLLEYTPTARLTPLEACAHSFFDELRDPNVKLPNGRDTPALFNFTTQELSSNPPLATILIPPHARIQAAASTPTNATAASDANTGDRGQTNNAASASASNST
Sequence of Mitogen-activated protein kinase 10 (P53779 whole entry): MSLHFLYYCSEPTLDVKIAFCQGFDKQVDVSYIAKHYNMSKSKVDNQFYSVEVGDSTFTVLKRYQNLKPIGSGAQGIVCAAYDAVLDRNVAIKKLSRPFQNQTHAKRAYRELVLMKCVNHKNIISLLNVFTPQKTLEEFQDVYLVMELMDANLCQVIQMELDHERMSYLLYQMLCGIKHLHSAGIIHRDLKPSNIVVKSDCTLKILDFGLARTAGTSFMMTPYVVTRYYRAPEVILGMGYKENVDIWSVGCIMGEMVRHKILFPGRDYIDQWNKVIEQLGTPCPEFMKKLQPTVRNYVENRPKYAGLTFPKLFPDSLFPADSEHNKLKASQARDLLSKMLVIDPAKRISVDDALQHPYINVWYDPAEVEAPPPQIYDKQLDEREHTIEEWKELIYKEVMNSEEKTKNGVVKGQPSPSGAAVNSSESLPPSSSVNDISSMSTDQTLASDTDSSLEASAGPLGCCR
Sequence of Ribosomal protein S6 kinase alpha-1 (Q15418 whole entry): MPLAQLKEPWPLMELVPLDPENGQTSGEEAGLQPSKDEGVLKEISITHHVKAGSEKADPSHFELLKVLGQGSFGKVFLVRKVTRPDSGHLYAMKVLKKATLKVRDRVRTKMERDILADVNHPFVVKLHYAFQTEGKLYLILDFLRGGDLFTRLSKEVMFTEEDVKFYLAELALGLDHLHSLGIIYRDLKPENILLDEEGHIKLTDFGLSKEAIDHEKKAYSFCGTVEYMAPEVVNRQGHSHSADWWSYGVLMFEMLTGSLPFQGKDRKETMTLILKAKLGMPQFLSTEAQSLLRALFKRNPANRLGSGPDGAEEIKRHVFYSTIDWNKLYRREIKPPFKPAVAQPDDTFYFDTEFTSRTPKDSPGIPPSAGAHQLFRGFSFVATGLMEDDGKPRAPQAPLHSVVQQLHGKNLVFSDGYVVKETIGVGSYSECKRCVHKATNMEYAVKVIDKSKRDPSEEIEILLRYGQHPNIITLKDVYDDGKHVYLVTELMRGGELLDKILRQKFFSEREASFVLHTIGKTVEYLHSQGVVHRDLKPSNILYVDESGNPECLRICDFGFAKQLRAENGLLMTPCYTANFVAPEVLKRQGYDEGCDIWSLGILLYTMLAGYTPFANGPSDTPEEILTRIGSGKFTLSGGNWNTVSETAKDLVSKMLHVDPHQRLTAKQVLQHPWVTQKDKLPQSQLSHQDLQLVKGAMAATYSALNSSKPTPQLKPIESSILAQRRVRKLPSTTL
Sequence of Aurora kinase B (Q96GD4 whole entry): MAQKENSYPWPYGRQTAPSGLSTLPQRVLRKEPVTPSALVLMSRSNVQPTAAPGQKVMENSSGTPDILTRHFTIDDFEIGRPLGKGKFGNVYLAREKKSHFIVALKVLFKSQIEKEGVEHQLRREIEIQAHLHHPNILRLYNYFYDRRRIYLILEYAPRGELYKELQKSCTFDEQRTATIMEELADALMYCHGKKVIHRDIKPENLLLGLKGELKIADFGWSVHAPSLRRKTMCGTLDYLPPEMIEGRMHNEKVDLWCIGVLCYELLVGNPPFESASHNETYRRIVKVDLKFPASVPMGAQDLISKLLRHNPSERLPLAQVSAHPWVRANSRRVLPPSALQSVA
Sequence of Vascular endothelial growth factor receptor 2 (P35968 whole entry): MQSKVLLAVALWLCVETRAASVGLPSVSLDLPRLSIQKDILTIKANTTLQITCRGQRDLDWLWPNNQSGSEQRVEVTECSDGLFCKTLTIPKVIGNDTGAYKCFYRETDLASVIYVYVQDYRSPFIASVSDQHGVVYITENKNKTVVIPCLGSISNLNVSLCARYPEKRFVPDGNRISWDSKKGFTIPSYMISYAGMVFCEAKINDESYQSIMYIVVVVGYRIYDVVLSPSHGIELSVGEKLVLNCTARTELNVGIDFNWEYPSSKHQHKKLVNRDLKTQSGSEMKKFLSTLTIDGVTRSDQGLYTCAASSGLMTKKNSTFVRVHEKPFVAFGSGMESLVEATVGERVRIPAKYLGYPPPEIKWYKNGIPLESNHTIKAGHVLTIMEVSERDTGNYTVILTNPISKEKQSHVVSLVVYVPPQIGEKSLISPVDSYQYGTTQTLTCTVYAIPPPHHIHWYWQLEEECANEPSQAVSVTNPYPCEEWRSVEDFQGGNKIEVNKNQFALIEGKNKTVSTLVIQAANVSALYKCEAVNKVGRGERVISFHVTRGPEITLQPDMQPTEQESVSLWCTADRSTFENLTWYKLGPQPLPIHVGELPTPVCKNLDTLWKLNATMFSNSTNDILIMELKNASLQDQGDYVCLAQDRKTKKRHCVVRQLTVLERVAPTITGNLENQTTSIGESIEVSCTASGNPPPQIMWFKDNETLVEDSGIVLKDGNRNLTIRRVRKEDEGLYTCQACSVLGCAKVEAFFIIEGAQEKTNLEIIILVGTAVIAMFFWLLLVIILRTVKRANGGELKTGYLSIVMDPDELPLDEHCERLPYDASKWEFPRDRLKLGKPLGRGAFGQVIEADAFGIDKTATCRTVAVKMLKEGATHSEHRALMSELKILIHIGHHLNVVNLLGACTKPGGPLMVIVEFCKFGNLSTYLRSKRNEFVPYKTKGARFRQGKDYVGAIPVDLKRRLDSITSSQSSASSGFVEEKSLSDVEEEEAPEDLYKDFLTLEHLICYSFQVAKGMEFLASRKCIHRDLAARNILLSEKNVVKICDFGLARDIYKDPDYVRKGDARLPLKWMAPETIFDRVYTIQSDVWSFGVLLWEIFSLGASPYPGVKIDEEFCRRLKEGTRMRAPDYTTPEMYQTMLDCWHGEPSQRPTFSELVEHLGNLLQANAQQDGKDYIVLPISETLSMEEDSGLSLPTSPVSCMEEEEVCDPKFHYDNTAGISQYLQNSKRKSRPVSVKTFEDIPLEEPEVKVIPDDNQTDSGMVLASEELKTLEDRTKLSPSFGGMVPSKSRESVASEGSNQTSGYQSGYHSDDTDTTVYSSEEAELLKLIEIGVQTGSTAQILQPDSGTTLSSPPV

IC50 [1]: > 10 µM
IC50 [2]: > 10 µM
IC50 [3]: > 10 µM
IC50 [7]: > 10 µM
IC50 (Aurora kinase B): > 10 µM
IC50 [8]: > 10 µM
IC50 [9]: > 10 µM
IC50 [10]: > 10 µM
IC50 [11]: > 10 µM
IC50 [12]: > 10 µM
IC50 [13]: > 10 µM
IC50 [15]: > 10 µM
IC50 [16]: > 10 µM
IC50 [17]: > 10 µM
IC50 [18]: 2.83 µM
IC50 [19]: > 10 µM
IC50 [20]: > 10 µM
IC50 [22]: 0.986 µM
IC50 (Aurora kinase A): > 10 µM
IC50 [23]: > 10 µM
inhibition [24]: Active
IC50 [26]: > 10 µM
IC50 [27]: 1.19 µM
inhibition [28]: Dose-dependent effect
IC50 [29]: > 10 µM
IC50 [30]: 2.46 µM
IC50 [31]: > 10 µM
IC50 [32]: > 10 µM
IC50 [33]: 0.37 µM
IC50 [34]: > 10 µM
SMILES: CN(C)CCCNC(=O)c1csc2nc(-c3ccc(NC(=O)Nc4cc(C(C)(C)C)on4)cc3)cn12
IC50 (HCT-116): 10 µM
IC50 (HeLa): 20 µM
IC50 [4]: > 10 µM
IC50 [5]: 3.3 µM
IC50 [6]: 10 µM
IC50 (MDA-MB-157): > 10 µM
IC50 (MV4-11): 0.002 µM
IC50 (SH-SY5Y): 3.3 µM
IC50 (Jurkat): 10 µM
IC50 (MCF7): > 10 µM
IC50 [14]: 10 µM
IC50 (HT-29): 10 µM
IC50 (ZR-75-1): > 10 µM
IC50 [21]: 10 µM
IC50 (A-375): 10 µM
IC50 (MDA-MB-435): > 10 µM
IC50 [25]: 10 µM
IC50 (BT-474): 10 µM
IC50 (Raji): > 10 µM
IC50 (MDA-MB-453): > 10 µM
